Laboratory results taken from article PMC6934184, “Selective DNA-PKcs inhibition extends the therapeutic index of localized radiotherapy and chemotherapy” (The Journal of Clinical Investigation, 2019).

Target: T1, FES (FPS) (Homo sapiens, UniProt P07332)
T1 construct: purchased Thermo Fisher Scientific (Life Technologies) SelectScreen
Experiment: SelectScreen Z'LYTE
Assay type: biochemical
In short: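 Percent values come from Thermo SelectScreen profiling of NU5455, combining activity and binding assays. CSF1R was run in Z'LYTE format at Km app ATP, and CAMK1 in Adapta format with ATP listed at 10.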

T1 sequence (P07332 whole entry): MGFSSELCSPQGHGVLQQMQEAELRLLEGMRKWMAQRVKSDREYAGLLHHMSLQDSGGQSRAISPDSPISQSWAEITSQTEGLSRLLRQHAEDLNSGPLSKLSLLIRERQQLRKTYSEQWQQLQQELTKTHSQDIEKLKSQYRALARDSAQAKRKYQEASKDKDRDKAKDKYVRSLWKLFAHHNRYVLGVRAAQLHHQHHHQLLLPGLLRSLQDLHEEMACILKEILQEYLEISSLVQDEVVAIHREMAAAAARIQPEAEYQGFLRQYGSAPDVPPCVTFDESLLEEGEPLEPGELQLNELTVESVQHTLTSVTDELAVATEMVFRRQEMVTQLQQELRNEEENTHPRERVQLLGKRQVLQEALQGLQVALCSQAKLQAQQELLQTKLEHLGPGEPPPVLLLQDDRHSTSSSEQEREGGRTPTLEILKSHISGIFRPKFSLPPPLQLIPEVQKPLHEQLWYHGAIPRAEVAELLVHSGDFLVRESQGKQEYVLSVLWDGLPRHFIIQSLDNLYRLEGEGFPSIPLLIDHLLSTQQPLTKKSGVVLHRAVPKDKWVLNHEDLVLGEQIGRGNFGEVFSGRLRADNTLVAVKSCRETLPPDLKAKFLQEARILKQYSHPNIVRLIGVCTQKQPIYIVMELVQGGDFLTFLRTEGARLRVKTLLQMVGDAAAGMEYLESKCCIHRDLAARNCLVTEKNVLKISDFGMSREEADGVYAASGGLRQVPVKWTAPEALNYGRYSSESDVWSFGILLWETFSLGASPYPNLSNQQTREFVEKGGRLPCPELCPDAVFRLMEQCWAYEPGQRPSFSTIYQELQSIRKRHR

CN(C(=O)CN1CCOCC1)c1ccc2sc3c(-c4cccc5c(=O)cc(N6CC7CCC(C6)O7)oc45)cccc3c2c1 [NU5455]
inhibition at 1 µM: 10.4%
